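How tested: cells in 96-well plates exposed to compound for 48 hours at five concentrations. GI50: concentration for 50% inhibition of growth. TGI denotes the concentration required for complete inhibition of growth.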
What was measured:
Experiment in all cases: growth of human tumour cells (NCI), 48 h
HOP-62 NSCLC = tested on: HOP-62 NSCLC
HOP-92 NSCLC = tested on: HOP-92 NSCLC
IGROV1 ovarian = tested on: IGROV1 ovarian
NCI-H460 lung = tested on: NCI-H460 lung
OVCAR-4 ovarian = tested on: OVCAR-4 ovarian
SF-295 CNS = tested on: SF-295 CNS
SF-539 CNS = tested on: SF-539 CNS
SNB-19 CNS = tested on: SNB-19 CNS
UACC-257 melanoma = tested on: UACC-257 melanoma
K-562 leukemia = tested on: K-562 leukemia

Compound	TGI (HOP-62 NSCLC) [µM]	TGI (HOP-92 NSCLC) [µM]	TGI (IGROV1 ovarian) [µM]	TGI (NCI-H460 lung) [µM]	TGI (OVCAR-4 ovarian) [µM]	TGI (SF-295 CNS) [µM]	TGI (SF-539 CNS) [µM]	TGI (SNB-19 CNS) [µM]	TGI (UACC-257 melanoma) [µM]	TGI (K-562 leukemia) [µM]	GI50 (HOP-62 NSCLC) [µM]	GI50 (HOP-92 NSCLC) [µM]	GI50 (IGROV1 ovarian) [µM]	GI50 (K-562 leukemia) [µM]	GI50 (NCI-H460 lung) [µM]	GI50 (SF-295 CNS) [µM]	GI50 (SF-539 CNS) [µM]	GI50 (SNB-19 CNS) [µM]	GI50 (UACC-257 melanoma) [µM]	GI50 (OVCAR-4 ovarian) [µM]
CNC(=O)NCCCCC(NC(C)=O)C(=O)NCc1ccccc1 (configuration not stated)	> 100	> 100	> 100	> 100	> 100	> 100	> 100	> 100	> 100											
CCNc1ccc2c(c1)C(=O)N(OS(C)(=O)=O)C2=O	> 100	> 100		> 100	> 100	> 100	51.5	> 100	> 100											
C/C(=N/NC(N)=S)C(CN1CCOCC1)C(C1=C(O)c2ccccc2OC1)c1ccccc1 (configuration not stated)		> 100	> 100	> 100	> 100	> 100	> 100	> 100	> 100	> 100										
COC(=O)c1c(C(=O)O)c(-c2ccccc2)c(-c2ccccc2)c(-c2ccccc2)c1-c1ccccc1	> 100	> 100	> 100	> 100		> 100	> 100	> 100	> 100	> 100	> 100	> 100	> 100	87	> 100	> 100	> 100	23.1	> 100	
O=C(O)C1CC2C=CCC(C2)C1 (configuration not stated)	> 100	> 100	> 100	> 100	> 100	> 100		> 100	> 100	> 100										
CCCCS(=O)(=O)c1cc(Nc2ccc(O)c3c2C(=O)c2ccccc2C3=O)ccc1C	> 100	> 100	> 100	> 100		> 100	> 100	> 100			27.8	> 100	> 100		0.431	5.77	> 100	13.4		
COc1cc(C=NCC(=O)CSC(c2ccccc2)c2ccccc2)ccc1O	27.9	21.7		56.2	23	46.9	29.1	28.7	18.7	23.3	14.6	10		4.73	20.1	14.6	14.8	14.5	5.94	5.32
O=c1cc(-c2ccccc2)oc2cc(OCCCCCCCCCCOc3ccc4c(=O)cc(-c5ccccc5)oc4c3)ccc12	> 100	> 100	> 100		> 100	> 100	> 100	> 100	> 100	> 100										
O=C1c2ccccc2-c2c1c1ccccc1c(=O)n2CCNCCNCCNCCNCCn1c2c(c3ccccc3c1=O)C(=O)c1ccccc1-2	2.24	2.5		1.99			0.314		5.73		0.973	0.939		0.0462	0.0669		0.0446		0.716	
O=C(O)C(Cc1ccccc1)N1C(=O)/C(=C/C(Cl)=C/c2ccc([N+](=O)[O-])cc2)SC1=S (configuration not stated)	6.75	5.71			> 100	7.85			4.95	> 100	2.31	2.35		3.01		2.59			1.97	3.21

— PubChem BioAssay (NCI)
